Experimental data reported in patent US11472814B2, “Thienopyranones and furanopyranones as checkpoint inhibitors and modulators of anti-tumor immunity” (SignalRx Pharmaceuticals, Inc., priority 2017, dated 2022).
“Also recorded” adds a separate entry of the source.

Tests used:
[1] = test system: CT26 tumor cells; assay: In vitro viability of CT26 tumor cells; assay type: cell-based; conditions: for % Cell Viability: CT26 tumor cells in vitro
From the text: (§1) We investigated the effect of Compound 3 on immune cell in vitro and on tumor growth in in vivo in immunocompetent syngeneic tumor models and the effects on the macrophage and T cell immune compartment in vivo by this compound. […] In order to distinguish whether Compound 3 blocks tumor growth due to its effect on immune cell compartment and not on tumor compartment, we tested the effect of this chemotype on CT26 tumor growth in immunodeficient NSG mice vs immunocompetent Balb/c mice. […] Compound 3 has combinatorial immune-oncologic activity in vivo to stimulate anti-cancer innate and adaptive immunity in well-defined accepted immune competent murine models for cancer immunotherapy.
Compound 3 has no effect on the in vitro viability of CT26 tumor cells.

[2] = test system: T cells in LLC tumors; assay: Quantification of CD3+, CD4+ and CD8+ T cells in LLC tumors; assay type: in vivo, mice
From the text: Quantification of CD3+, CD4+ and CD8+ T cells in the LLC tumors treated with Compound 3 (n=3, *p<0.05, t test). Conclusion: Compound 3 decreased CD4+ cells by 50% and increased CD8+ T cells in the tumor compartment by 7% in vivo as compared to vehicle control treated mice.

[3] = biological target: T1, BRD4-1 (Homo sapiens, UniProt O60885); assay: Bromodomain protein inhibition IC50, binding domain 1 of BRD4 (Reaction Biology Corp.); conditions: 10-point curve
T1 construct: purchased Reaction Biology Corp., Malvern, Pa; (contract assay service)
From the text: The inhibitory activity of a compound of the invention against PI3K and/or BRD4 and/or SYK and/or CDK4/6 can be readily determined using methods known to the skilled artisan, or by commercial vendors offering such services. […] In vivo, PI3K inhibition can be determined from target tissue biopsies by standard tissue processing to disrupt cells and then performing Western Blot analysis to determine the presence or absence of pAKT (substrate of PI3K) relative to a control sample. The activity of a compound of the invention as an inhibitor of a bromodomain-containing protein, such as a BET protein, such as BRD2, BRD3, BRD4, and/or BRDT, or an isoform or mutant thereof, may be determined in vitro, in vivo, or in a cell line. In vitro assays include assays that determine inhibition of bromodomain-containing proteins. Alternatively, inhibitor binding may be determined by running a competition experiment where a provided compound is incubated with a bromodomain-containing protein, such as a BET protein bound to known ligands, labeled or unlabeled. For example, bromodomain inhibition can be determined in vitro using Alpha Screen Technology (http://www.reactionbiologv.com/webapps/site/NewsPDFs/Bromodomain%20Assay %20Platform %20for %20Drug %20Screening %20and %20Discovery.pdf). In vivo bromodomain inhibition can be determined indirectly by evaluating the amount of protein present of proteins whose genes' transcription is influenced or controlled by the bromodomain protein, for example, the MYCN protein transcription is controlled by BRD4 (J. E. Delmore et al., Cell 2011, 146, 904-917; A. Puissant, Cancer Discov. 2013, 3, 308-323). Bromodomain inhibition may also be predicted by in silico modeling as described below in the Examples. Additionally, the company Promega offers a SYK luminescent assay to determine a compound's ability to inhibit the SYK protein (https://www.promega.com/-/media/files/resources/protocols/kinase-enzyme-appnotes/syk-kinase-assay-protocol.pdf?la=en).
Compounds of the invention were characterized for their ability to inhibit target proteins using third party vendors offering such services. PI3K alpha, gamma, and delta inhibition activity was determined by Thermo Fisher Scientific-Biosciences Life Sciences Solutions, Madison, Wis. The bromodomain protein inhibition (binding domain 1 and 2 of BRD4) as well as SYK inhibition was determined at Reaction Biology Corp., Malvern, Pa. […] The IC50 data (shown below in Table 5) was calculated from a 10-point curve and is expressed in nanomolar concentration (nM) rounded off to the nearest whole number. […]

[4] = test system: MC38 tumors; assay: MC38 tumor growth in immunocompetent murine model; assay type: in vivo; conditions: vs vehicle
From the text: as §1
In contrast to above data, Compound 3 has a marked significant inhibitory effect on CT26, LLC and MC38 tumor growth in immunocompetent murine models. Conclusion: this establishes effect of Compound 3 as immune-oncologically active agent in cancer immunotherapy. In immunocompetent mice with same tumor cell inoculum Compound 3 inhibited tumor growth by from 58-68%. p<0.001 in all experiments compared to vehicle control.

[5] = test system: T cells in CT26 tumors; assay: Flow cytometric quantification of T cells infiltrating CT26 tumors; assay type: in vivo, mice
Procedure: Effect of Compound 3 treatment of CT26 tumor bearing mice in vivo 3 mg/kg by intraperitoneal injection QD (IP) for 14 days on number of CD3+/CD8+ T cells infiltrating the tumor tissue. Conclusion: Compound 3 increased CD8+ T cells in the tumor compartment by 800% in vivo. (n=6, p<0.001, t test) as compared to vehicle control treated mice.
Values represent mean±SEM. Conclusion: Compound 3 decreased CD4+ T cells by 5.6-fold and increased CD8+ T cells in the tumor compartment by 6% in vivo as compared to vehicle control treated mice.

[6] = CT26 tumors, flow cytometry, vs vehicle

Cc1nn(-c2ccnc(Nc3ccc(-c4csc5c(=O)cc(N6CCOCC6)oc45)cc3)n2)cc1CN1CCC1 [Compound 3, 3-[p-(4-{4-[(1-Azetidinyl)methyl]-3-methyl-1H-pyrazol-1-yl}-2-pyrimidinylamino)phenyl]-5-morpholino-4-oxa-1-thia-7-indenone]
in vitro viability of CT26 tumor cells [1]: didn't show any effect; also recorded: no effect | % Cell Viability ([1]; Log Inhibitor conc. 1.68867): 96.5 ± 5.3% | % Cell Viability ([1]; Log Inhibitor conc. 1.9897): 96 ± 8.0% | % Cell Viability ([1]; Log Inhibitor conc. 2.29073): 91.6 ± 8.9% | % Cell Viability ([1]; Log Inhibitor conc. 2.59176): 91.3 ± 5.13% | % Cell Viability ([1]; Log Inhibitor conc. 2.89279): 89.8 ± 6.7% | % Cell Viability ([1]; Log Inhibitor conc. 3.19382): 87.3 ± 4.1% | % Cell Viability ([1]; Log Inhibitor conc. 3.49485): 87.1 ± 9.6% | % Cell Viability ([1]; Log Inhibitor conc. 3.79588): 84.3 ± 4.3% | % Cell Viability ([1]; Log Inhibitor conc. 4.09691): 83.9 ± 6.27% | % Cell Viability ([1]; Log Inhibitor conc. 4.39794): 83.6 ± 5.1% | % Cell Viability ([1]; Log Inhibitor conc. 4.69897): 77.4 ± 5.0% | CD4+ T cells (% of CD3+ T cells) ([2]; LLC tumor): 23 ± 7, % of CD3+ T cells | CD8+ T cells (% of CD3+ T cells) ([2]; LLC tumor): 34 ± 1.1, % of CD3+ T cells | decrease of CD4+ cells ([2]; LLC tumor, vs vehicle): 50% | increase of CD8+ T cells in the tumor compartment ([2]; vs vehicle): 7% | IC50 [3]: 1 to 5 µM | % Growth inhibition of MC38 tumor [4]: 62 +/− 24% | increase of CD8+ T cells in the tumor compartment ([5]; CT26, 3 mg/kg IP QD 14 days, CD3+/CD8+, vs vehicle): 800% | decrease of CD4+ T cells [5, 6]: 5.6 fold | increase of CD8+ T cells in the tumor compartment [5, 6]: 6% | CD3+ T cells (% of live cells) ([5]; CT26 tumors, Compound 3 3 mg/kg IP QD 14 days, vehicle 1.1 ± 0.29): 8 ± 0.46 % of live cells | CD8+ T cells (% of CD3+ T cells) ([5]; CT26 tumors, flow cytometry, mean±SEM, n=3, vehicle 56 ± 3.9): 62 ± 2.0 % of CD3+ T cells | CD4+ T cells (% of CD3+ T cells) ([5]; CT26 tumors, flow cytometry, mean±SEM, n=3, vehicle 56 ± 5.29): 9.5 ± 0.7 % of CD3+ T cells
